From patent US9566342B2, “Compounds for treatment of heart failure” (SOLVOTRIN INNOVATIONS LIMITED, priority 2010, dated 2017)

How the values were obtained:
[1] = test system: MMP-9 mRNA; experiment: TNFα treated human cardiac fibroblasts, MMP-9 transcription (QPCR); type: cell-based; settings: HCF
[2] = target: MMP-13 (Homo sapiens, UniProt P45452); experiment: Direct enzyme inhibition, MMP-13; type: biochemical
[3] = test system: MMP-9; experiment: Total MMP-9 levels on repeated oral administration in non-human primates; type: in vivo, cynomolgus monkeys
[4] = test system: MMP-2 mRNA; experiment: TNFα treated human cardiac fibroblasts, MMP-2 transcription (QPCR); type: cell-based; settings: HCF, 10 ng/mL TNFα 72 hours, 75 or 150 μM
[5] = target: T1, MMP-2 (Homo sapiens, UniProt P08253); experiment: Model of direct enzyme inhibition, MMP-2 (IC50); type: biochemical
T1 sequence (P08253 110-660): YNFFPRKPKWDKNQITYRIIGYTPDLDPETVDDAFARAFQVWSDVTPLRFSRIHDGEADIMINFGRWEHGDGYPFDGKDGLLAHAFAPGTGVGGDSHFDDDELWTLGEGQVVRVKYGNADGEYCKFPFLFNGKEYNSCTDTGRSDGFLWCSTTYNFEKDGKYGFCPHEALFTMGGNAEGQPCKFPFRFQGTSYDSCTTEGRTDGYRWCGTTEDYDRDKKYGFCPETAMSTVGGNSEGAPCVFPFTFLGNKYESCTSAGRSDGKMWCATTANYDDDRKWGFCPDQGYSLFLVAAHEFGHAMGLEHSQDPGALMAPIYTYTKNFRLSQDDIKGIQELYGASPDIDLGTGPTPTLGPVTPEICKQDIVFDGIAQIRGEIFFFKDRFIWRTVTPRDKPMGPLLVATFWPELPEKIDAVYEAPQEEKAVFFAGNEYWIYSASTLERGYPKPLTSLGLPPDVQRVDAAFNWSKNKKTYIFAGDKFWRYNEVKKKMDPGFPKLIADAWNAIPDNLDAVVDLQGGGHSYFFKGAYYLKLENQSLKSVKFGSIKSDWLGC

[6] = target: T2, MMP-1 (Homo sapiens, UniProt P03956); experiment: Direct enzyme inhibition, MMP-1; type: biochemical
T2 sequence (P03956 100-469): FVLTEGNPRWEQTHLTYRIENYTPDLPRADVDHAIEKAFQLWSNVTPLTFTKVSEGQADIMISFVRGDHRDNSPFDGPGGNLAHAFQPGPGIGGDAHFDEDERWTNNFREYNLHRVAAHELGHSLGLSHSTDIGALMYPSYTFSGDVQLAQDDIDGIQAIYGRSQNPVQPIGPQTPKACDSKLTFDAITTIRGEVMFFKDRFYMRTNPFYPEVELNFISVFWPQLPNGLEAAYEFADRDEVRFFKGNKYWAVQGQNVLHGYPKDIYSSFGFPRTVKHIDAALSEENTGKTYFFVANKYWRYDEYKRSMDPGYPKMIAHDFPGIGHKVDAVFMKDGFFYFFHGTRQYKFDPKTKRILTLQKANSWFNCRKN

[7] = test system: MMP-2; experiment: PMA stimulated breast cancer cell model (HT1080 cells), pro-MMP-2 / MMP-2; type: cell-based
[8] = target: T1, MMP-2; experiment: Direct inhibition of recombinant MMP-2, fluorogenic substrate; type: biochemical; design: purchased R&D Systems, Ireland; settings: read-out: inhibition of recombinant human MMP-2
[9] = test system: MMP-9; experiment: PMA-stimulated CaCo2 cells, zymography of media, MMP-9; type: cell-based
[10] = target: T3, MMP-9 (Homo sapiens, UniProt P14780); experiment: Model of direct enzyme inhibition, MMP-9 (IC50); type: biochemical
[11] = target: MMP-8 (Homo sapiens, UniProt P22894); experiment: Direct enzyme inhibition, MMP-8; type: biochemical
[12] = test system: Human Peripheral Blood mononuclear cells (PBMC) stimulated with TNF-α; experiment: MMPs, TIMP-1 and inflammatory markers in supernatants of PBMC stimulated with TNF-α; type: cell-based
[13] = test system: Human Ventricular Cardiac Fibroblast (HCF); experiment: Human ventricular cardiac fibroblast proliferation (CellTitre-Glo); type: cell-based
[14] = test system: human colon cancer cells; experiment: Colon cancer cell invasiveness, in vitro model; type: cell-based; settings: low dose, FIG. 10
[15] = target: T3, MMP-9; experiment: Direct inhibition of recombinant MMP-9, fluorogenic substrate; type: biochemical; design: purchased R&D Systems, Ireland; settings: read-out: inhibition of recombinant human MMP-9
[16] = test system: MMP-2; experiment: PMA-stimulated CaCo2 cells, zymography of media, MMP-2; type: cell-based; settings: 150 uM
[17] = Blood pressure in non-human primates; settings: cynomolgus monkeys, over dosing period
[18] = 75 μM, 24 hours, TNFα, mean ± SEM
[19] = 150 μM, 24 hours, TNFα, mean ± SEM

T3 sequence (P14780 94-707): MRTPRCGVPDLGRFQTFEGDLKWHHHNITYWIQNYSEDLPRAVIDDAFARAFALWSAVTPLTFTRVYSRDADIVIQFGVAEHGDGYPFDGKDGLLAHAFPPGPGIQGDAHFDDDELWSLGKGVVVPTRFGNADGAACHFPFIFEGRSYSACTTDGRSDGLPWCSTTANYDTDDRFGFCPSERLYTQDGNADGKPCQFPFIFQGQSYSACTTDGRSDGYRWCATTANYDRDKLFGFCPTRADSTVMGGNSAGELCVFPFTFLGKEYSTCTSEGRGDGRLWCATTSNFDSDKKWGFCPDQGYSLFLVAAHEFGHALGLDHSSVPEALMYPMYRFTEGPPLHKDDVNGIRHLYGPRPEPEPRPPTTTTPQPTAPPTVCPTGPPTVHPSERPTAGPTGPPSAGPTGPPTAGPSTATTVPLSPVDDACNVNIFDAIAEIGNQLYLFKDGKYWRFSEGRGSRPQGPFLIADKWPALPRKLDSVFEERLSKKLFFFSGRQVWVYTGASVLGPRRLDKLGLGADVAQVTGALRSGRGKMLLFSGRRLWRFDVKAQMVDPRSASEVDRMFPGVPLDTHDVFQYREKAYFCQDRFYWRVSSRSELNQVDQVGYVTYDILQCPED
Chain of MMP-8 (P22894 101-467, species assumed): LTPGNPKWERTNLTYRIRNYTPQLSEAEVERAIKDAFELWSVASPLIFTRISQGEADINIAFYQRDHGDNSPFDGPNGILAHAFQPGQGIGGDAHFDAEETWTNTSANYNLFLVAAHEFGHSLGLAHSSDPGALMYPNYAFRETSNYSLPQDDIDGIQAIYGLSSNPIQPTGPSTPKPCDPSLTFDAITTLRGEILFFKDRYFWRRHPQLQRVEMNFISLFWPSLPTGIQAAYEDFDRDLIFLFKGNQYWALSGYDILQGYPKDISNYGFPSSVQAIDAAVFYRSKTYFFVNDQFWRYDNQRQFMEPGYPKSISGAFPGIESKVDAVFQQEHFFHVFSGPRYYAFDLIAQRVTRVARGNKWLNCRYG

`C[C@H]1c2cccc(O)c2C(=O)C2=C(O)[C@]3(O)C(=O)C(C(=O)NCN4CCC(CO[N+](=O)[O-])CC4)=C(O)[C@@H](N(C)C)[C@@H]3[C@@H](O)[C@@H]21` [Example 7, amido-N-[4-(nitrooxymethyl)piperidinomethyl]-α-6-deoxy-5-oxytetracycline] gave a melting point of 130 to 132 °C.

In the case of `C[C@H]1c2cccc(O)c2C(=O)C2=C(O)[C@]3(O)C(=O)C(C(=O)NCN(CCO[N+](=O)[O-])CCO[N+](=O)[O-])=C(O)[C@@H](N(C)C)[C@@H]3[C@@H](O)[C@@H]21` [SI1004, amido-N—[N,N-diethylnitrate-aminomethyl]-α-6-deoxy-5-oxytetracycline], the “MMP-9 protein levels in treated cell supernatants” value [1] is reported as “below the lower limit of quantification”, the “TNFα induced upregulation of MMP-9 mRNA” value ([1]; 10 ng/mL TNFα 72 hours, 75 or 150 μM) is reported as “significantly inhibited” and the inhibition at 10 µM ([2]; 10 μM) is reported as ~46%. For the same molecule, the MMP-13 inhibition ([2]; at 1000 (so in the source)) was “around 74.5%”, the “total plasma MMP-9, median AUC” value ([3]; NHPs, daily orogastric gavage for 72 hours, n=6) was 4.3 µg·h/mL and the “change in MMP-9 from baseline to 72 hours” value ([3]; cynomolgus monkeys, oral gavage once daily for three days, n=6 per group) was “significantly reduced compared to doxycycline”. The “suppression of total serum MMP-9 protein levels” value ([3]; cynomolgus monkeys, oral, daily for 3 days, vs doxycycline) was “more effective suppression”, the “MMP-2 mRNA expression” value [4] was “no significant effects” and the IC50 [5] was 9.4 µM. The inhibition at 10 µM ([6]; 10 μM) was ~19%, the inhibition at 100 µM ([6]; 100 μM) was ~63% and the “conversion of pro-MMP-2 to active MMP-2 (activation of MMP-2)” value [7] was “do not appear to activate MMP-2”. For the same molecule, the inhibition at 100 µM [8] was 29.7 ± 2.1%, the melting point was 101 to 104 °C and the “suppression of MMP-9 activity relative to PMA positive control” value [9] was “approximately 60%”. The IC50 [10] was 25 µM, the inhibition at 10 µM ([11]; 10 μM) was ~26% and the inhibition at 100 µM ([11]; 100 μM) was ~60.7%. For the same molecule, the “MMP-3 in in vitro inflammatory cell models” value [12] was “does not reduce MMP-3”, the “Interleukin-1β protein level in PBMC supernatant” value [12, 18] was 27.8 ± 6.6 ng/mL and the “Interleukin-4 protein level in PBMC supernatant” value [12, 18] was 10.8 ± 0.2 ng/mL. For the same molecule, the “Interleukin-5 protein level in PBMC supernatant” value [12, 18] was 35.8 ± 8.4 ng/mL, the “Interleukin-8 protein level in PBMC supernatant” value [12, 18] was 10960 ± 484 ng/mL and the “Interleukin-10 protein level in PBMC supernatant” value [12, 18] was 125.6 ± 32.2 ng/mL. The “Interleukin-13 protein level in PBMC supernatant” value [12, 18] was 80.8 ± 24.8 ng/mL, the “MMP-1 protein level in PBMC supernatant” value [12, 18] was 208 ± 102 ng/mL and the “MMP-2 protein level in PBMC supernatant” value [12, 18] was 120.4 ± 86.4 ng/mL. For the same molecule, the “MMP-3 protein level in PBMC supernatant” value [12, 18] was 8.7 ± 5.2 ng/mL, the “MMP-10 protein level in PBMC supernatant” value [12, 18] was 26.6 ± 18.4 ng/mL and the “Interleukin-5 protein level in PBMC supernatant” value [12, 19] was 35.6 ± 6.4 ng/mL. For the same molecule, the “Interleukin-10 protein level in PBMC supernatant” value [12, 19] was 142.0 ± 55.2 ng/mL, the “Interleukin-13 protein level in PBMC supernatant” value [12, 19] was 89.4 ± 13.2 ng/mL and the “MMP-1 protein level in PBMC supernatant” value [12, 19] was 171 ± 66.0 ng/mL. The “MMP-2 protein level in PBMC supernatant” value [12, 19] was 95.4 ± 52 ng/mL, the “MMP-3 protein level in PBMC supernatant” value [12, 19] was 9.1 ± 6.1 ng/mL and the “MMP-10 protein level in PBMC supernatant” value [12, 19] was 29.0 ± 14.6 ng/mL. The “inhibition of HCF proliferation” value ([13]; 75-150 μM, 2% FCS following serum starvation for 72 hours) was “significant inhibition”, the “inhibition of cardiac fibroblast proliferation (admixture study, FIG. 13)” value ([13]; 150 micromolar) was “significantly more effective at inhibiting cardiac fibroblast proliferation” and the “colon cancer cell invasiveness” value [14] was “more effective in reducing tumour cell invasiveness”. The inhibition at 100 µM [15] was 26.6 ± 1.7%, the “inhibition of MMP-2 activity relative to PMA positive control” value [16] was “about 40%” and the diastolic blood pressure [17] was 56.4±3.8 mmHg. For the same molecule, the “mean systolic blood pressure” value [17] was 101±6.3 mmHg.

With “Amido-N-[3-(Nitrooxymethyl)Piperidinomethyl]-α-6-Deoxy-5-Oxytetracycline [SI1005]” the MMP-13 inhibition ([2]; 10 μM) was ~6.6%, the MMP-13 inhibition ([2]; 100 μM) was “around 28.4%” and the “change in MMP-9 from baseline to 72 hours” value ([3]; cynomolgus monkey, in vivo, po) was “significantly reduced compared to doxycycline and SI1004”. The IC50 [5] was 63 µM, the MMP-1 inhibition ([6]; 10 μM) was ~13% and the MMP-1 inhibition ([6]; 100 μM) was “around 22%”. The “conversion of pro-MMP-2 to active MMP-2 (activation of MMP-2)” value [7] was “do not appear to activate MMP-2”, the IC50 [10] was 139 µM and the MMP-8 inhibition ([11]; 10 μM) was ~16.9%. For the same molecule, the MMP-8 inhibition ([11]; 100 μM) was “around 53.8%” and the “colon cancer cell invasiveness” value [14] was “more effective in reducing tumour cell invasiveness”.
